The values that follow are results of earlier work, collected in US5047425A, “Amine derivatives having cardiovascular activity” (Simes Societa Italiana Medicinali & Sintetici SpA, priority 1987, dated 1991).

For this data set the following is noted: literature: McKenna 1966; Whitsitt 1967; cited from earlier work.

For the compound `CC(C)NCC(O)COc1cccc2ccccc12` (centres unmarked) [Propranolol], the “cardiac output” value was “depresses at the same time the cardiac output”; the “coronary flow” value is “depresses at the same time the cardiac output and the coronary flow”.
